Source: patent US10392389B2, “Heterocyclic compounds for the inhibition of PASK” (BioEnergenix, LLC, priority 2012, dated 2019)

These molecules were tested against T1, PASK (UniProt #Q96RG2; human recombinant N-terminal GST tagged construct, residues 879-1323) (Homo sapiens, UniProt Q96RG2) (assay: PASK ATP Radiochemical Assay). Settings: 33P-ATP, Myelin Basic Protein substrate, read-out: IC50 Kinase Domain.
T1 construct: N-terminal GST tagged construct, residues 879-1323; GST (N); host or cells: insect cells
Type: biochemical
Description: (§1) Biochemical Assay for hPASK Activity
PASK ATP Radiochemical Assay
Purified PASK (UniProt #Q96RG2; human recombinant N-terminal GST tagged construct, residues 879-1323) from insect cells (final concentration 5 nM) is added to freshly prepared Base Reaction Buffer containing 20 mM HEPES (pH 7.5), 10 mM MgCl2, 1 mM EGTA, 0.02% Brij35, 0.02 mg/ml BSA, 0.1 mM Na3VO4, 2 mM DTT, 1% DMSO and Myelin Basic Protein (20 μM final). Test compounds in DMSO are then added and the mixture, followed by delivery of ^33P-ATP (specific activity 0.01 μCi/μl final) to initiate the reaction. The kinase reaction is incubated for 120 min at room temperature. The entire reaction mixture is washed through onto a P81 Phosphocellulose paper and washed three times for 10 minutes in 75 mM phosphoric acid and once in methanol prior to drying and scintillation counting.

T1 sequence (Q96RG2 879-1323, stated change not applied): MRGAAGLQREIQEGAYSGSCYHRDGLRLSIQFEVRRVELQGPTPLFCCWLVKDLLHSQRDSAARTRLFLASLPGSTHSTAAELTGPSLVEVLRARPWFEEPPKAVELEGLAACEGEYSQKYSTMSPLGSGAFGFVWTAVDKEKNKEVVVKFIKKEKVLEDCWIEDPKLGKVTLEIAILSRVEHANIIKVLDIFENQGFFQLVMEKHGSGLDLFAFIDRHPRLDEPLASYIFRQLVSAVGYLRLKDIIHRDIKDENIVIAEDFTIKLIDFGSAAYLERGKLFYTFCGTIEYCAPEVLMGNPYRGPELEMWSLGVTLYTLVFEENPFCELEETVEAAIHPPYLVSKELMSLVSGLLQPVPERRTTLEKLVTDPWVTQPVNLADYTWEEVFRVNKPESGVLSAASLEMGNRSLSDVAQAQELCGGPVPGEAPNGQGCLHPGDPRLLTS

IC50 [µM]	Compound
≤ 10	O=c1cc(-c2ccc3c(c2)OCO3)[nH]c2c(-c3ncco3)cnn12 [Example 1, 5-(2H-1,3-benzodioxol-5-yl)-3-(1,3-oxazol-2-yl)-4H,7H-pyrazolo[1,5-a]pyrimidin-7-one]

These molecules were tested against T2, PASK (Invitrogen) (Homo sapiens, UniProt Q96RG2) (assay: PAS Kinase FRET Assay). Settings: PAS kinase TR-FRET assay (665 nm/615 nm); read-out: IC50 Kinase Domain.
T2 construct: IC50 Kinase Domain; purchased Invitrogen
Type: biochemical
Text: as §1
The aim of the FRET assay is to determine the inhibition potential of test compounds on targeted kinase. This assay platform provides a homogenous screening method for measuring kinase activity by quantitating the amount of phospho-substrate in solution following a kinase reaction.
In the presence of kinase and ATP, the Ulight-peptide is phosphorylated and captured by an anti-phospho-substrate antibody, which brings the Eu chelate donor and Ulight acceptor dyes into close proximity. Upon excitation at 340 nm, the Eu chelate transfers its energy to the Ulight dye, resulting in a fluorescent light emission at 665 nm.
Titration of kinase at 1 mM ATP was achieved via the following protocol. After making serial three-fold dilutions of PASK (Invitrogen) in reaction buffer across the plate; 5 μl of kinase dilution and 5 μl substrate/ATP mix were added to the wells of the white Optiplate-384 (PerkinElmer). The contents of the plate were and incubated at RT for 1 h. The reaction was stopped by adding 5 μl of stop solution to each test well followed by mixing and incubation at RT for 10 minutes. 5 μl of detection mix (detection antibody diluted in detection buffer) was added; the contents of the plate were mixed and then incubated in the dark for 1 hour at RT. The signal was recorded at TR-FRET mode (665 nm/615 nm). The results were graphed to calculate the EC50.
Titration of ATP at the EC50 concentration of kinase to determine ATP Km,app. was performed using the following method. After making serial dilutions of ATP (Invitrogen), 5 μl of ATP dilution and 5 μl substrate/kinase mix were added to the wells of the white Optiplate-384 (PerkinElmer). The contents of the plate were and incubated at RT for 1 h. The reaction was stopped by adding 5 μl of stop solution to each test well followed by mixing and incubation at RT for 10 minutes. 5 μl of detection mix (detection antibody diluted in detection buffer) was added; the contents of the plate were mixed and then incubated in the dark for 1 hour at RT. The signal was recorded at TR-FRET mode (665 nm/615 nm). The results were graphed to calculate the EC50 as the ATP Km,app.
Compound screening was done via the following method. 10 mM stock solution of test compound in DMSO was prepared by dissolving test compound in DMSO at RT for 1 hour, and then sonicating at 100% output for 8 minutes. If compound is not soluble under this condition, it was diluted to 3 mM. Kinase reaction buffer was prepared containing 10 mM MgCl2, 50 mM HEPES, 1 mM EGTA, 0.01% TWEEN-20, 2 mM DTT. Serial dilutions of the test compounds were prepared at 4× final assay concentrations using Freedom EVO200® dispensing system as follows: 12×10^−5 M, 4×10^−5 M, 1.33×10^−5 M, 4.44×10^−6 M, 1.48×10^−6 M, 4.92×10^−7 M, 1.65×10^−7 M, […], 1.82×10^−8M, 6.09×10^−9, 2.03×10^−9 M. Test compounds (2.5 μl at 4× the final assay concentration) was added to wells using Freedom EVO200® dispensing system. As a positive control, 2.5 μl of positive compound was added to assay wells, and 2.5 μl of DMSO to assay wells as vehicle control. Kinase solution was prepared in reaction buffer at 2× final assay concentration. Kinase solution (5 μl) was added to each well of the assay plate. The substrate and ATP solution was prepared in kinase reaction buffer at 4× final assay concentration. The kinase reaction was started by adding 2.5 μl of substrate+ATP mix solution to each well of the assay plate. The plate is mixed on a plate shaker; then covered and allowed to react for 2 hours in the dark at 25° C. without shaking. The reaction was stopped by adding 5 μl of stop solution to each test well followed by mixing and incubation at RT for 10 minutes in the dark. 5 μl of detection mix (detection antibody diluted in detection buffer) was added; the contents of the plate were mixed and then incubated in the dark for 1 hour at RT. The signal was recorded at TR-FRET mode (665 nm/615 nm).

T2 sequence (Q96RG2 999-1251 limits assumed): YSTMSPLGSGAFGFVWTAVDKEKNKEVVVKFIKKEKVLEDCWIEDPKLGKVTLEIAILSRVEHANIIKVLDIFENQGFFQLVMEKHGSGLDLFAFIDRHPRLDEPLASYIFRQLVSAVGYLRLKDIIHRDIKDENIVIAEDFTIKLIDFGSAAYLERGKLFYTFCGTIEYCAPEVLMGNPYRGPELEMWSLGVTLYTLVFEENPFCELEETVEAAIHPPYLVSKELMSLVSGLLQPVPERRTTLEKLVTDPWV

Compound	IC50 [µM]
CCn1ncc2ccc(-c3cc(=O)n4ncc(-c5ncco5)c4[nH]3)cc21 [Example 109, 5-(1-ethyl-1H-indazol-6-yl)-3-(oxazol-2-yl)pyrazolo[1,5-a]pyrimidin-7(4H)-one]	≤ 10
CCn1nc(C)c2cc(-c3cc(=O)n4ncc(-c5ncc(C)o5)c4[nH]3)ccc21 [Example 105, 5-(1-Ethyl-3-methyl-1H-indazol-5-yl)-3-(5-methyloxazol-2-yl)pyrazolo[1,5-a]pyrimidin-7(4H)-one]	≤ 10
Cc1noc(-c2cnn3c(=O)cc(-c4ccc5occc5c4)[nH]c23)n1 [Example 62, 5-(benzofuran-5-yl)-3-(3-methyl-1,2,4-oxadiazol-5-yl)-4H,7H-pyrazolo[1,5-a]pyrimidin-7-one]	≤ 10
CCn1ncc2ccc(-c3cc(=O)n4ncc(-c5nc(C)no5)c4[nH]3)cc21 [Example 111, 5-(1-Ethyl-1H-indazol-6-yl)-3-(3-methyl-1,2,4-oxadiazol-5-yl)pyrazolo[1,5-a]pyrimidin-7(4H)-one]	≤ 10
N#Cc1cc(-c2cc(=O)n3ncc(-c4ncco4)c3[nH]2)ccc1O [Example 75, 2-hydroxy-5-(3-(oxazol-2-yl)-7-oxo-4,7-dihydropyrazolo[1,5-a]pyrimidin-5-yl)benzonitrile]	≤ 10
CCn1ncc2cc(-c3cc(=O)n4ncc(-c5nccs5)c4[nH]3)ccc21 [Example 26, 5-(1-ethyl-1H-indazol-5-yl)-3-(thiazol-2-yl)-4H,7H-pyrazolo[1,5-a]pyrimidin-7-one]	≤ 10
CCn1ncc2cc(-c3cc(=O)n4ncc(-c5nc6ccccc6o5)c4[nH]3)ccc21 [Example 33, 3-(benzo[d]oxazol-2-yl)-5-(1-ethyl-1H-indazol-5-yl)pyrazolo[1,5-a]pyrimidin-7(4H)-one]	≤ 10
CCn1nnc2cc(-c3cc(=O)n4ncc(-c5ncco5)c4[nH]3)ccc21 [Example 49, 5-(1-ethyl-1H-benzo[d][1,2,3]triazol-5-yl)-3-(oxazol-2-yl)pyrazolo[1,5-a]pyrimidin-7(4H)-one]	≤ 10
CCc1cnc(-c2cnn3c(=O)cc(-c4ccc5c(c4)OCO5)[nH]c23)o1 [Example 14, 5-(2H-1,3-benzodioxol-5-yl)-3-(5-ethyl-1,3-oxazol-2-yl)-4H,7H-pyrazolo[1,5-a]pyrimidin-7-one]	≤ 10
O=c1cc(-c2ccc(Cl)c(Cl)c2)[nH]c2c(-c3noc4ccccc34)cnn12 [Example 60, 3-(benzo[d]isoxazol-3-yl)-5-(3,4-dichlorophenyl)pyrazolo[1,5-a]pyrimidin-7(4H)-one]	≤ 10
CC(C)n1ncc2cc(-c3cc(=O)n4ncc(-c5ccnn5C)c4[nH]3)ccc21 [Example 88, 5-(1-isopropyl-1H-indazol-5-yl)-3-(1-methyl-1H-pyrazol-5-yl)pyrazolo[1,5-a]pyrimidin-7(4H)-one]	≤ 10
COc1nn2c(=O)cc(-c3ccc(Cl)cc3)[nH]c2c1-c1nc(C)no1 [Example 10, 5-(4-chlorophenyl)-2-methoxy-3-(3-methyl-1,2,4-oxadiazol-5-yl)-4H,7H-pyrazolo[1,5-a]pyrimidin-7-one]	≤ 10
Cc1noc2ccc(-c3cc(=O)n4ncc(-c5ncco5)c4[nH]3)cc12 [Example 110, 5-(3-methylbenzo[d]isoxazol-5-yl)-3-(oxazol-2-yl)pyrazolo[1,5-a]pyrimidin-7(4H)-one]	≤ 10

Second part, the molecule after the results:

IC50 [µM]	Compound
≤ 10	O=c1cc(-c2ccc3c(c2)OCO3)[nH]c2c(-c3ncco3)cnn12 [Example 1, 5-(2H-1,3-benzodioxol-5-yl)-3-(1,3-oxazol-2-yl)-4H,7H-pyrazolo[1,5-a]pyrimidin-7-one]
≤ 10	CCOc1cc(-c2cc(=O)n3ncc(-c4ncc(C)o4)c3[nH]2)ccc1F [Example 36, 5-(3-ethoxy-4-fluorophenyl)-3-(5-methyloxazol-2-yl)-4H,7H-pyrazolo[1,5-a]pyrimidin-7-one]
≤ 10	CCNC(=O)Cc1cnn2c(=O)cc(-c3ccc(Cl)c(OC)c3)[nH]c12 [Example 80, 2-[5-(4-chloro-3-methoxyphenyl)-7-oxo-4H,7H-pyrazolo[1,5-a]pyrimidin-3-yl]-N-ethylacetamide]
≤ 10	Cc1cnc(-c2cnn3c(=O)cc(-c4ccc(Cl)cc4)[nH]c23)o1 [Example 47, 5-(4-chlorophenyl)-3-(5-methyloxazol-2-yl)pyrazolo[1,5-a]pyrimidin-7(4H)-one]
≤ 10	COc1cc(-c2cc(=O)n3ncc(-c4ncc(-c5ccccc5)o4)c3[nH]2)ccc1Cl [Example 63, 5-(4-chloro-3-methoxyphenyl)-3-(5-phenyloxazol-2-yl)-4H,7H-pyrazolo[1,5-a]pyrimidin-7-one]
≤ 10	Cc1noc(-c2c(O)nn3c(=O)cc(-c4ccc(Cl)cc4)[nH]c23)n1 [Example 9, 5-(4-chlorophenyl)-2-hydroxy-3-(3-methyl-1,2,4-oxadiazol-5-yl)-4H,7H-pyrazolo[1,5-a]pyrimidin-7-one]
≤ 10	COc1cc(-c2cc(=O)n3ncc(-c4noc5ccccc45)c3[nH]2)ccc1Cl [Example 50, 3-(benzo[d]isoxazol-3-yl)-5-(4-chloro-3-methoxyphenyl)pyrazolo[1,5-a]pyrimidin-7(4H)-one]
≤ 10	Cc1cnc(-c2cnn3c(=O)cc(-c4ccc(Cl)c(OCC(F)(F)F)c4)[nH]c23)o1 [Example 37, 5-[4-chloro-3-(2,2,2-trifluoroethoxy)phenyl]-3-(5-methyloxazol-2-yl)-4H,7H-pyrazolo[1,5-a]pyrimidin-7-one]
≤ 10	Cn1ncc2cc(-c3cc(=O)n4ncc(C#N)c4[nH]3)ccc21 [Example 108, 5-(1-methyl-1H-indazol-5-yl)-7-oxo-4H,7H-pyrazolo[1,5-a]pyrimidine-3-carbonitrile]
≤ 10	Cc1noc(-c2cnn3c(=O)cc(-c4ccc5c(c4)OCCO5)[nH]c23)n1 [Example 97, 5-(2,3-dihydrobenzo[b][1,4]dioxin-6-yl)-3-(3-methyl-1,2,4-oxadiazol-5-yl)pyrazolo[1,5-a]pyrimidin-7(4H)-one]
≤ 10	COc1cc(-c2cc(=O)n3ncc(-c4nc5ccccc5o4)c3[nH]2)ccc1Cl [Example 45, 3-(benzo[d]oxazol-2-yl)-5-(4-chloro-3-methoxyphenyl)pyrazolo[1,5-a]pyrimidin-7(4H)-one]
≤ 10	CCn1ncc2cc(-c3cc(=O)n4nc(C)c(-c5ncco5)c4[nH]3)ccc21 [Example 29, 5-(1-ethyl-1H-indazol-5-yl)-2-methyl-3-(oxazol-2-yl)-4H,7H-pyrazolo[1,5-a]pyrimidin-7-one]
